Assay results: patent publication US20230047208A1, “RNA Splicing Modulation” (The General Hospital Corporation, priority 2020, published 2023)

How the values were obtained:
CFTR protein = assay: CFTR western blot, mature CFTR protein in Flp-In-293 cells stably expressing c.2988G>A; assay type: cell-based, human; details: Flp-In-293 c.2988G>A stable cells, 60 μM, 5 days
Description: For CFTR WB, 40 μg of protein lysate was separated on 7.5% Criterion TGX protein gel (BioRad) and transferred to a PVDF membrane using a Trans-Blot Turbo Transfer System (BioRad). After blocking in 5% non-fat dry milk (BioRad), the membrane was probed with mouse monoclonal anti-CFTR antibody (1:5000 in PBST) that recognizes amino acids 1204-1211 (596, CFFT, North Carolina Chapel Hill). Rabbit monoclonal anti-Na+K+ ATPase (Abcam) (1:50,000 in PBST) was used as a loading control. Secondary antibodies were anti-mouse (1:150,000 GE Healthcare) and anti-rabbit (1:100,000 GE Healthcare), respectively. Blots were exposed on film using ECL Primer Western Blotting Detection Reagent (GE Healthcare)
WT CFTR-EMG-i14-i18, CFTR-EMG-i14-i18 harboring c.2988G>A, Flp-In-CFBE, and Flp-In-293 cells stably expressing WT-EMG and c.2988G>A EMG were generated. Both Flpin-293 and Flp-In-CFBE cells lack endogenous CFTR expression (CFBE41o-) and contain a single Flp recombinase target site. Co-transfection of EMG plasmid with pOG44 (a plasmid encoding Flp recombinase) allowed for genomic integration at the FRT site. Hygromycin was used for stable cell selection.
CFTR protein levels was assessed in Flp-In-293 cells stably expressing the c.2988G>A splicing variant after treatment with Compound (I) for 5 days. […]

CPSF7 minigene, Exon X = assay: CPSF7 minigene splicing assay, RT-PCR; assay type: cell-based; details: mutated CPSF7 minigene
Excerpt: (§1) FIGS. 3E-3G Upper row: The length of the exon triplets cloned into minigenes constructs are shown. The flanking sequences of the 5′ splice sites of Exon X are shown in LOGO plots. The height of each nucleotide was estimated using in silico saturated mutagenesis, with the corresponding closely matched CNN Motifs indicated below the plots. […] Middle row: Splicing changes for Exon X in both wildtype and mutated exon triplets, predicted by the CNN model (left) and measured by RT-PCR of the minigene (right). The RT-PCR experiments were performed in duplicate and independently repeated three times for each minigene to make the bar plots (two-tailed, unpaired Student's t test). Bottom row: Example of splicing changes induced by treatment with Compound (I) in the minigene splicing assays. The percentage for Exon X inclusion is indicated beneath each lane, from treated and untreated conditions in both wildtype and mutated minigenes. […] The statistical significance, as shown in FIGS. 3E-3G, was determined via two-tailed, unpaired Student's test: *p<0.05; **p<0.01; ***p<0.001. […]
(§2) Wild-type and mutant double-stranded DNA (dsDNA) fragments, selected based on low nucleotide length and exon-skipping probability, were ordered through GENEWIZ (FragmentGENE). […] Concentrations were determined using a nanodrop spectrometer.

PARP6 minigene, Exon X = assay: PARP6 minigene splicing assay, RT-PCR; assay type: cell-based; details: mutated PARP6
Excerpt: as §1, §2

Compound: Clc1nc(NCc2ccncc2)c2cc[nH]c2n1 [Compound (I), 2-chloro-N-(pyridin-4-ylmethyl)-7H-pyrrolo[2,3-d]pyrimidin-4-amine]
- amount of mature CFTR protein (CFTR protein): ~20 % of WT
- Exon X splicing response confirmed by RT-PCR (CPSF7 minigene, Exon X): inclusion
- Exon X splicing response confirmed by RT-PCR (PARP6 minigene, Exon X): inclusion
